In patent US20230190760A1, “ADVANTAGEOUS THERAPIES FOR DISORDERS MEDIATED BY IKAROS OR AIOLOS” (C4 Therapeutics, Inc., priority 2020, published 2023):

How the values were obtained:
NCIH929.1 cells = test: NCIH929.1 cell viability assay (CellTiter-Glo, GI50); assay type: cell-based; conditions: 96 hr
[1] = tested on: RPMI-8226 multiple myeloma tumors; conditions: Compound 1 10 μg/kg PO daily, Dexamethasone 5000 μg/kg IV once a week, Combination
Procedure: A xenograft study was conducted in female CB17 SCID mice bearing RPMI-8226 multiple myeloma tumors. Female SCID mice were inoculated subcutaneously in the right flank with 10×10^6 tumors cells in 0.2 mL of PBS supplemented with matrigel (PBS:matrigel=1:1). Tumor volume was measured twice weekly in two dimensions using calipers, and volume was calculated using the formula: (w2×l)/2=mm^3, assuming 1 mg is equivalent to 1 mm^3 of tumor volume. […] Treatment began on Day 0 with established subcutaneous RPMI-8226 tumors with a mean tumor volume (MTV) of 130 mm^3.
All agents were administered to mice bearing RPMI-8226 tumors on day 0 and dosed until an individual moue tumor volume reached or exceeded 1000 mm^3, at which point the mouse was removed from the study and dosing stopped. […] Dexamethasone was dosed IV once a week at 5000 μg/kg and formulated in saline. […] Body weight and MTV were measured on a 2× weekly schedule. The study end point was reaching a TV greater than 1000 mm^3, at which point any mouse with a TV reaching this cut off TV was removed from the study. […] The survival analysis used was Logrank (Mantel-Cox test). Data are expressed as MTV±SEM.

[2] = Plasma PK and interconversion in rat; assay type: in vivo; conditions: Compound 1 30 mg/kg PO
Procedure: (§1) Compound 1 was administered to a rat at a concentration of 30 mg/kg PO and monkeys at a concentration of either 60 μg/kg or 100 μg/kg PO. At the indicated timepoints shown in FIG. 25A and FIG. 25B, plasma samples were collected and the Cmax, half-life, and AUC0-inf were determined for both Compound 1 and a metabolite of Compound 1, Compound 14. The percent of Compound 14 was also determined (Table 13). PK values dose normalized to 1 mg/kg. FIG. 25A is a graph measuring the concentration of Compound 1 or Compound 14 over the course of 24 hours in monkeys administered 100 μg/kg or 60 μg/kg of Compound 1. FIG. 25B is a graph measuring the concentration of Compound 1 or Compound 14 over the course of 24 hours in a rat administered 30 mg/kg of Compound 1.

[3] = Plasma PK and interconversion in monkeys; assay type: in vivo; conditions: monkey, Compound 1 60 μg/kg or 100 μg/kg PO, dose normalized to 1 mg/kg
Procedure: as §1

r/r subjects with MCL = conditions: r/r MCL following bortezomib; cited from earlier work
TMD8 DLBCL tumors = conditions: Compound 1 50 μg/kg, Ibrutinib 12500 μg/kg, Combination of both; PO daily
Procedure: A xenograft study was conducted in female CB17 SCID mice bearing TMD8 DLBCL tumors. Female SCID mice were inoculated subcutaneously in the right flank with 5×10^6 tumors cells in 0.2 mL of PBS supplemented with matrigel (PBS:matrigel=1:1). Tumor volume was measured twice weekly in two dimensions using calipers, and volume was calculated using the formula: (w2×l)/2=mm^3, assuming 1 mg is equivalent to 1 mm^3 of tumor volume. […] Treatment began on Day 0 with established subcutaneous TMD8 tumors with a mean tumor volume (MTV) of 107-108 mm^3.
All agents were administered to mice bearing TMD8 tumors on day 0 and dosed PO daily until individual tumor volumes reached or exceeded 1500 mm^3, at which point dosing stopped and the individual mouse was removed from the study. Compound 1 was dosed at 50 μg/kg and was formulated in PEG400 (30% v/v)+70% v/v HPMC (1% w/v) in citrate buffer (pH 5). Ibrutinib was dosed at 12.5 mg/kg and formulated in 0.5% MC+0.4% cremophor EL+0.1% sodium lauryl sulfate. Compound 1 was also dosed in combination with Ibrutinib at their respective single agent doses. Body weight and MTV was measured on a 2× weekly schedule and the study end point was when all mice were removed from the study on day 54. Statistical analysis was performed using survival analysis and the Logrank test (Mantel-Cox test). Data are expressed as MTV±SEM.

Row | Compound | GI50 (NCIH929.1 cells) [nM] | other results
1 | O=C1CCC(N2C(=O)c3cccc4c(Cc5cnn(C6CCN(CC7(F)CC7)CC6)c5)ccc2c34)C(=O)N1 (centres unmarked) [Compound 13, 3-(6-((1-(1-((1-fluorocyclopropyl)methyl)piperidin-4-yl)-1H-pyrazol-4-yl)methyl)-2-oxobenzo[cd]indol-1(2H)-yl)piperidine-2,6-dione] | 0.155 | 
2 | O=C1CC[C@H](N2C(=O)c3cccc4c(Cc5ccc(CN6CCC7(CCCO7)CC6)cc5)ccc2c34)C(=O)N1 (single isomer, unassigned) [Compound 12] | 0.0107 | 
3 | CC1(CN2CCC(n3cc(Cc4ccc5c6c(cccc46)C(=O)N5C4CCC(=O)NC4=O)cn3)CC2)CCC1 (centres unmarked) [Compound 2, 3-(6-((1-(1-((1-methylcyclobutyl)methyl)piperidin-4-yl)-1H-pyrazol-4-yl)methyl)-2-oxobenzo[cd]indol-1(2H)-yl)piperidine-2,6-dione] | 0.00933 | 
4 | C[C@@H]1C[C@H]2[C@@H]3CCC4=CC(=O)C=C[C@]4(C)[C@@]3(F)[C@@H](O)C[C@]2(C)[C@@]1(O)C(=O)CO [Dexamethasone, reference compound] |  | Median Survival [1]: 30
5 | N#Cc1ccc(N2CCN(Cc3ccc(Cc4ccc5c6c(cccc46)C(=O)N5C4CCC(=O)NC4=O)cc3)CC2)c(F)c1 (centres unmarked) [Compound 4, 4-(4-(4-((1-(2,6-dioxopiperidin-3-yl)-2-oxo-1,2-dihydrobenzo[cd]indol-6-yl)methyl)benzyl)piperazin-1-yl)-3-fluorobenzonitrile] | 0.0201 | 
6 | CC(C)(C)CN1CCC(n2cc(Cc3ccc4c5c(cccc35)C(=O)N4C3CCC(=O)NC3=O)cn2)CC1 (centres unmarked) [Compound 9, 3-(6-((1-(1-neopentylpiperidin-4-yl)-1H-pyrazol-4-yl)methyl)-2-oxobenzo[cd]indol-1(2H)-yl)piperidine-2,6-dione] | 0.0297 | 
7 | CC1(C(=O)N2CCC(C)(n3cc(Cc4ccc5c6c(cccc46)C(=O)N5C4CCC(=O)NC4=O)cn3)CC2)CCC1 (centres unmarked) [Compound 6, 3-(6-((1-(4-methyl-1-(1-methylcyclobutane-1-carbonyl)piperidin-4-yl)-1H-pyrazol-4-yl)methyl)-2-oxobenzo[cd]indol-1(2H)-yl)piperidine-2,6-dione] | 0.0146 | 
8 | CC(C)(C)C(=O)N1CCC(C)(n2cc(Cc3ccc4c5c(cccc35)C(=O)N4C3CCC(=O)NC3=O)cn2)CC1 (centres unmarked) [Compound 11, 3-(6-((1-(4-methyl-1-pivaloylpiperidin-4-yl)-1H-pyrazol-4-yl)methyl)-2-oxobenzo[cd]indol-1(2H)-yl)piperidine-2,6-dione] | 0.0272 | 
9 | O=C1CC[C@@H](N2C(=O)c3cccc4c(Cc5ccc(CN6CCOCC6)cc5)ccc2c34)C(=O)N1 [Compound 14] |  | AUC(0-inf) ([2]; dose normalized to 1 mg/kg): 47 ng·h/mL; Cmax ([2]; dose normalized to 1 mg/kg): 6 ng/mL; half-life ([2]; read-out: T ½ (converted)): 2.7 h; Cmax [3]: 5 ng/mL
10 | CC(C)(C)CN1CCC(C)(n2cc(Cc3ccc4c5c(cccc35)C(=O)N4C3CCC(=O)NC3=O)cn2)CC1 (centres unmarked) [Compound 10, 3-(6-((1-(4-methyl-1-neopentylpiperidin-4-yl)-1H-pyrazol-4-yl)methyl)-2-oxobenzo[cd]indol-1(2H)-yl)piperidine-2,6-dione] | 0.0621 | 
11 | CC1(CN2CCC(n3cc(Cc4ccc5c6c(cccc46)C(=O)N5C4CCC(=O)NC4=O)cn3)CC2)CC1 (centres unmarked) [Compound 7, 3-(6-((1-(1-((1-methylcyclopropyl)methyl)piperidin-4-yl)-1H-pyrazol-4-yl)methyl)-2-oxobenzo[cd]indol-1(2H)-yl)piperidine-2,6-dione] | 0.0159 | 
12 | O=C1CCC(N2C(=O)c3cccc4c(Cc5ccc(CN6CCOCC6)cc5)ccc2c34)C(=O)N1 (centres unmarked) [Compound 5, 3-(6-(4-(morpholinomethyl)benzyl)-2-oxobenzo[cd]indol-1(2H)-yl)piperidine-2,6-dione] | 0.0498 | 
13 | O=C1CCC(N2C(=O)c3cccc4c(Cc5ccc(CN6CCN(c7ccccc7F)CC6)cc5)ccc2c34)C(=O)N1 (centres unmarked) [Compound 3, 3-(6-(4-((4-(2-fluorophenyl)piperazin-1-yl)methyl)benzyl)-2-oxobenzo[cd]indol-1(2H)-yl)piperidine-2,6-dione] | 0.0409 | 
14 | Nc1cccc2c1CN(C1CCC(=O)NC1=O)C2=O (centres unmarked) [lenalidomide] |  | median duration of response [DOR] (r/r subjects with MCL): 16.6 months; overall response rate [ORR] (r/r subjects with MCL): 28%
15 | C=CC(=O)N1CCC[C@@H](n2nc(-c3ccc(Oc4ccccc4)cc3)c3c(N)ncnc32)C1 [Ibrutinib, 1-[(3R)-3-[4-amino-3-(4-phenoxy-phenyl)pyrazolo[3,4-d]pyrimidin-1-yl]piperidin-1-yl]prop-2-en-1-one, reference compound] |  | Median Survival (TMD8 DLBCL tumors): 28
16 | CC1(CN2CCC(C)(n3cc(Cc4ccc5c6c(cccc46)C(=O)N5C4CCC(=O)NC4=O)cn3)CC2)CC1 (centres unmarked) [Compound 8, 3-(6-((1-(4-methyl-1-((1-methylcyclopropyl)methyl)piperidin-4-yl)-1H-pyrazol-4-yl)methyl)-2-oxobenzo[cd]indol-1(2H)-yl)piperidine-2,6-dione] | 0.138 | 
